Experimental data reported in patent US7250401B2, “Therapeutic compositions” (Advanced Therapeutics and Diagnostics, LC, priority 2001, dated 2007).

Assay: Reaction with thionitrobenzoate (detection of thiol-reactive substances, loss of absorbance at 412 nm)
Format: physicochemical
Conditions: for rate of reaction with thionitrobenzoate: aqueous solution at pH 7 and 25° C.
Method: A stock solution of 5-thio-2-nitrobenzoate (hereafter referred to as thionitrobenzoate) was prepared by reduction of 5,5′-dithiobis(2-nitrobenzoic acid) (hereafter referred to as DTNB, Aldrich Chemical Company). This stock solution was prepared by mixing 0.1 ml of 0.1 M DTNB dissolved in ethanol (396 mg of DTNB in 10 ml of ethanol), 0.1 ml of 1 M aqueous potassium phosphate buffer (prepared by mixing equal volumes of 1 M monobasic potassium phosphate with 1 M dibasic potassium phosphate), and 0.025 ml of 1 M sodium borohydride dissolved in 1 M NaOH on ice. After incubating this mixture for 10 minutes at ice temperature, 0.1 mL of 1 M monobasic potassium phosphate was added and the resultant solution was diluted to a final volume of 2 ml by addition of 1.675 ml of water.
An alternate method for preparation of a stock solution of thionitrobenzoate involves the use of 2-mercaptoethanol as reductant, in place of sodium borohydride. In this method a 10 mM solution of DTNB was prepared by mixing 39.6 mg of DTNB with 17 mg of sodium bicarbonate and 4 ml of ice-cold water. After allowing the effervescence to subside, this solution was mixed with 0.01 ml of 0.5 M trisodium ethylenediaminetetracetate and 0.1 ml of 1 M potassium phosphate buffer, then diluted to a final volume of 10 ml with water. A separate stock of 10 mM 2-mercaptoethanol was prepared by dilution of neat 2-mercaptoethanol (14.3 M) with water (serial dilution of 0.01 ml of neat 2-mercaptoethanol to 1 ml to give 0.143 M and then dilution of 0.07 ml of this solution to a final volume of 1 ml to give 10 mM). The stock of 8.7 mM thionitrobenzoate was prepared by mixing 2 ml of 1 M potassium phosphate buffer with 0.2 ml of 10 mM 2-mercaptoethanol and 0.1 ml of 10 mM aqueous DTNB.
If 0.01 ml of the 10 mM stock of thionitrobenzoate, obtained by sodium borohydride reduction of DTNB, was diluted with 0.89 ml of water and 0.1 ml of 1 M phosphate buffer, it gave an absorbance at 412 nm of 1.36 in a 1 cm pathlength cuvette. If 0.01 ml of the 8.7 mM stock of thionitrobenzoate obtained by 2-mercaptoethanol reduction of DTNB was diluted with 0.89 ml of water and 0.1 ml of 1 M phosphate buffer, it gave an absorbance at 412 nm of 1.18 in a 1 cm pathlength cuvette. […] (4 M^−1 s^−1).
(<0.05 M^−1 s^−1). DECOSMe (EXAMPLE 4) reacted with thionitrobenzoate under these conditions at a rate of 4 M^−1 s^−1. DETC-MeSO2 (EXAMPLE 5) reacted with thionitrobenzoate under these conditions at a rate of 0.4 M^−1 s^−1. S-Methyl-O-(N,N-diethylcarbamoyl)sulfinate (DECO2SMe, prepared by rearrangement of DETC-MeSO2 under the conditions described in EXAMPLE 4) reacted with thionitrobenzoate under these conditions at a rate of 14 M^−1 s^−1.

SMILES | rate of reaction with thionitrobenzoate [M⁻¹ s⁻¹] | half time of first-order decay of absorbance at 412 nm (0.01 ml of 0.1 M aqueous solution added to thionitrobenzoate assay mixture, 25° C.) [min] | rate of reaction with thionitrobenzoate (from first-order decay of absorbance at 412 nm) (0.01 ml of 0.1 M aqueous solution added, 25° C.) [M⁻¹ s⁻¹] | rate of reaction with thionitrobenzoate, prior to rearrangement to DECOSMe (0.01 ml of 5 mM aqueous solution, freshly synthesized, anaerobic conditions, up to 24 hours)
CCN(CC)C(=O)S(C)(=O)=O [DETC-MeSO2, S-Methyl-N,N-Diethylthiolcarbamate Sulfone] | 0.4 |  |  | 
CCN(CC)C(=O)OS(C)=O (stereo not drawn) [DECO2SMe, S-Methyl-O-(N,N-diethylcarbamoyl)sulfinate] | 14 |  |  | 
CCN(CC)C(=O)OSC [DECOSMe, S-Methyl-O-(N,N-Diethylcarbamoyl)Sulfenate] | 4 | 2.9 | 4 | 
CCN(CC)C(=O)[S+](C)[O-] (stereo not drawn) [DETC-MeSO, S-Methyl-N,N-Diethylthiolcarbamate Sulfoxide] |  |  |  | less than 0.01 M^−1 s^−1
